Where “and” joins values, the source holds several entries; their conditions need not be identical. Identical values can stand only once.
Key:
[1] = Pharmacokinetics of Compound A in SJSA-1 tumor-bearing rat (plasma, tumor, tissues; UPLC/MS-MS); type: in vivo, nude rat
Procedure: Subcutaneous tumors were induced by concentrating 1.0×10^7 SJSA-1 cells in 50% Matrigel® and injecting in the right flank of Harlan nude rats. Efficacy experiment could start 14 days post cell injection. […] The animals were treated either at a high dose (20 mg/kg i.v. or 27 mg/kg p.o.) once every 3 weeks (q3w) or at a high dose (15 mg/kg p.o.) followed 24 h later by a daily low dose treatment (3 mg/kg p.o., 2 weeks on/2 weeks off).
(§1) At the times indicated, animals were anaesthetized by exposure to 2-3% v/v isofluorane in medical oxygen: • Either the animal was killed without recovering from anesthetic after blood sampling. Blood was collected into commercially prepared EDTA coated tubes (Milian, cat #TOM-14C) in order to extract plasma. The tissues were excised, weighed and rapidly frozen in liquid nitrogen. • Or a tumor biopsy was collected by using a biopsy gun and flushing the needle with RLT buffer in Barney rubble tubes (Covaris, cat #520048). In addition, 20 μl of blood may have been collected from the tail vein and diluted in 20 μl of water. After recovery of anesthesia, animals were transferred in their respective cages.
Tissues were homogenized in an equal volume of HPLC-Water (Water for chromatography, Merck) using the Fast Prep®-24 system (M.P. Biomedicals, Irvine, Calif., USA). Following addition of 25 μl of internal standard mixture (1 μg/ml) to analytical aliquots (25 μl) of plasma or tissues homogenate the proteins were precipitated by the addition of 200 μl acetonitrile. The supernatant were transferred in a fresh vial. After evaporation to dryness the samples were re-dissolved in 60 μl acetonitrile/water (1/1 v/v). An aliquot (5 μl) of this solution was separated on a ACQUITY UPLC BEH C18 column (Waters™ 1.7 μm particle size, 2.1×50 mm) with a mobile phase consisting of a mixture of 0.1% formic acid in water (solvent A) and 0.1% formic acid in acetonitrile (solvent B). Gradient programming was used with a flow rate of 600 μl/min. After equilibration with 95% solvent A, 5 μl of sample was injected. Following a latency period of 0.25 min, the sample was eluted with a linear gradient of 5-100% solvent B over a period of 0.65 minutes followed by a 0.35 minutes hold. The column was prepared for the next sample by re-equilibrating over 0.25 minutes to the starting conditions. The column eluent was directly introduced into the ion source of the triple quadrupole mass spectrometer TQD™ (Waters Corporation, Milford, Mass., USA) controlled by Masslynx™ 4.1 software. Electrospray positive ionization (ESI+) multiple reaction monitoring was used for the MS/MS detection of the analyte. […] The limit of quantification (LOQ) for the compound was set to 0.7 ng/mL (CV and overall bias less than 30%). Regression analysis and further calculations were performed using QuanLynx™ 4.1 (Micromass) and Excel™ 2007 (Microsoft). Concentrations of unknown samples were back-calculated based on the peak area ratios of analyte/IS from a calibration curve constructed using calibration samples spiked in blank plasma or tissue obtained from animals treated with vehicle.
Areas under the plasma concentration versus time curves (AUC) were calculated from the mean values with linear trapezoidal rule, and further relevant parameters by using a non-compartmental model for extravascular dosing (WinNonlin® Professional Version 5.2, Pharsight corp., CA, US).

[2] = test system: BBC3 (puma); experiment: Pharmacodynamic qRT-PCR: Puma mRNA induction in SJSA-1 tumor; type: in vivo, Human
From the text: as §1
(§2) Frozen tissues were cryogenic dry pulverized and biopsies were sonicated using the CryoPrep™ system (model CP-02) from Covaris. More specifically, frozen tissues were transferred to disposable tubes called TissueTubes™, placed in the CryoPrep™ system and then pulverized using the appropriate impact setting. The resulting powder was collected with a spatula and weighed for further processing (mRNA purification or quantification of compound in tissues). The biopsies were flushed in a Barney rubble glass tubes with 350 μl of RLT buffer and placed in the Covaris for sonication (1 min per biopsy). The resulting lysate was transferred into a QIAshredder (79654, Qiagen) column for RNA extraction.
(§3) Total RNA was purified from cell pellets using the QIAshredder (79654, Qiagen) and RNeasy Mini Kit (74106, Qiagen) according to the manufacturer's instructions, with the exception that no DNA digestion was performed. Total RNA was eluted with 50 μL of RNase-free water. Total RNA was quantitated using the spectrophotometer ND-1000 Nanodrop®. The qRT-PCR (Quantitative Reverse Transcriptase Polymerase Chain Reaction) was set up in triplicate per sample using the One-Step RT qPCR Master Mix Plus (RT-QPRT-032X, Eurogentec), with either control primers and primers for the target, namely TaqMan Gene Expression assays (20× probe dye FAM™ (or VIC)-TAMRA (or MGB); Applied Biosystems) listed in Table 1.

[3] = test system: Cdkn1 a (p21); experiment: Pharmacodynamic qRT-PCR: p21 mRNA induction in SJSA-1 tumor; type: in vivo, nude rat
From the text: as §1, §2, §3

[4] = test system: SJSA-1 tumor; experiment: Efficacy on SJSA-1 tumor-bearing nude rat (tumor volume); type: in vivo; settings: for tumor regression in average: one week post treatment
[5] = after first p.o. treatment, 20 and 27 mg/kg
[6] = after first single i.v. treatment 20 mg/kg
[7] = single i.v. 20 mg/kg, 24 h post treatment, tumor
[8] = single oral 27 mg/kg, 48 h post treatment, tumor
[9] = i.v. q3w 13.7 mg/kg, week 1 post treatment
[10] = i.v. q3w 13.7 mg/kg, week 2 post treatment
[11] = i.v. q3w 18.2 mg/kg, week 1 post treatment
[12] = i.v. q3w 18.2 mg/kg, week 2 post treatment
[13] = i.v. q3w 18.2 mg/kg, week 3 post treatment
[14] = i.v. q3w 18.2 mg/kg, week 5 post treatment
[15] = i.v. q3w 20 mg/kg, three weeks post first treatment

COc1ncc(-c2nc3c(n2C(C)C)[C@H](c2ccc(Cl)cc2)N(c2cc(Cl)cn(C)c2=O)C3=O)c(OC)n1 [Compound A, (S)-5-(5-Chloro-1-methyl-2-oxo-1,2-dihydro-pyridin-3-yl)-6-(4-chloro-phenyl)-2-(2,4-dimethoxy-pyrimidin-5-yl)-1-isopropyl-5,6-dihydro-1H-pyrrolo[3,4-d]imidazol-4-one]
Cmax and AUC0-24 h in blood ([1]; after first p.o. treatment, 20 and 27 mg/kg q3w): dose-dependently increased
exposure in heart, jejunum, spleen, liver and bone marrow compared to plasma ([1]; i.v. 20 mg/kg on day 59 post first treatment): twice as high as in plasma
Tmax ([1]; nude (Harlan), rat, iv, single i.v. injection 20 mg/kg, liver): 5 min
Tmax ([1]; nude (Harlan), rat, iv, single i.v. injection 20 mg/kg, plasma): 5 min
Tmax ([1]; nude (Harlan), rat, iv, single i.v. injection 20 mg/kg, tumor): 60 min
Tmax ([1]; nude (Harlan), rat, single oral 27 mg/kg, all matrices (plasma, tumor and liver)): 180 min
AUC(0-t) ([1]; nude (Harlan), rat, single oral 27 mg/kg, plasma, read-out: AUC0-144 h): 112 µM·h
exposure in tumor compared to plasma ([1]; single i.v. injection 20 mg/kg): two times higher
AUC0-144 h dn ([1]; single i.v. injection 20 mg/kg, tumor): 16.5 nmol·h/g
AUC0-144 h ([1]; single oral 27 mg/kg, tumor): 277.7 nmol·h/g
Puma mRNA expression in tumor [2, 5]: dose-dependently increased
Puma mRNA expression increase in tumor [2, 6]: more than 50 fold
Puma mRNA expression induction ([2]; below the high dose): 5-6 fold
Puma mRNA induction Emax ([2]; higher single dose, intravenously or per os): ≥ 70 fold induction
Puma mRNA expression max [2, 7]: 180 fold
Puma mRNA induction Emax [2, 8]: 162 fold
p21 mRNA expression in tumor [3, 5]: dose-dependently increased
p21 mRNA expression increase in tumor [3, 6]: more than 50 fold
p21 mRNA expression max [3, 7]: 200 fold
p21 mRNA induction Emax [3, 8]: 180 fold
tumor cell density ([4]; higher single dose, 48 and 72 h post-treatment): dramatic decrease
tumor growth ([4]; i.v. 13.7 mg/kg, after two weeks): re-growing
tumor regression in average ([4]; i.v. 13.7 mg/kg): 66%
tumor regression in average ([4]; i.v. 18.2 mg/kg): 88%
tumor regression ([4]; i.v. 18.2 mg/kg, three weeks post treatment): 36%
CR [4, 9]: 1/6
ΔTvol (%) [4, 9]: −66 ± 9%
CR [4, 10]: 0/6
ΔTvol (%) [4, 10]: 4 ± 37%
CR [4, 11]: 0/5
ΔTvol (%) [4, 11]: −80 ± 2%
CR [4, 12]: 2/5
ΔTvol (%) [4, 12]: −79 ± 11%
CR [4, 13]: 2 and 2/5
ΔTvol (%) [4, 13]: −36 ± 37%
CR [4, 14]: 2/5
ΔTvol (%) [4, 14]: 22 ± 63%
CR ([4]; i.v. q3w 18.2 mg/kg, week 6 post treatment): 2/5
ΔTvol (%) ([4]; i.v. q3w 18.2 mg/kg, week 6 post treatment (after the second treatment)): 118% and 118 ± 104%
rats with complete response (100% regression) [4, 15]: 3
rats with progressive disease [4, 15]: 1
rats with stable disease [4, 15]: 1
effect of combining two dosing schedules ([4]; intermittent (15 mg/kg once) plus daily dosing (1.5 mg/kg)): highly synergistic effect
tumor regression ([4]; p.o. q3w 20 mg/kg, three weeks post first treatment): 27%
SJSA-1 tumor regression ([4]; p.o. q3w 27 mg/kg, after one cycle (three weeks post first treatment)): 88%
response of regrown tumors to retreatment ([4]; retreated i.v. at 15 mg/kg): still sensitive
tumors with incomplete response and regrowth ([4]; single i.v. 20 mg/kg): 2 of 11
tumor regression ([4]; single i.v. 20 mg/kg, 14 days post treatment): 92%
complete SJSA-1 tumor response (100% regression), share of treated rat ([4]; single i.v. 20 mg/kg, for 42 days): 82%
